Results on 1 compound are retold here after patent US20250214992A1, “HIGH-PURITY COMPOUND PRODUCTION METHOD AND PURIFICATION METHOD” (SANTEN PHARMACEUTICAL CO., LTD., priority 2022, published 2025).

A short description of this series: Ames test. The class given is cell-based. To be noted: impurity contained in the prepared AFDX0250; found in the development stage of a pharmaceutical composition. On the technique in general: In the Ames test, an excess of revertant colonies over the control signals mutagenicity.

Turning to `O=C1Nc2cccnc2N(C(=O)CCl)c2ccccc21` [Compound 1, 11-(2-chloroacetyl)-5,11-dihydro-6H-pyrido[2,3-b][1,4]benzodiazepin-6-one], the Ames test result is reported as “positive”.
